{"source": "PubChem BioAssay AID743305", "about": "(Broad Institute, 2014)", "note": "Several values for one entry are separate records, joined by “and”; a condition that tells them apart may be missing. Identical values can stand only once. Activity calls are given as the source filed them. No rule for the calls is given here.", "data": [{"tested_on": "Cryptococcus neoformans cell lysis, plate reader", "experiment": "fungal lysis by compounds in C. neoformans – plate reader, dry powder, set 2, dose response (AID 743305)", "details": "not given", "values": [{"molecule": "Cc1cc2ncn(CCOc3ccccc3C)c2cc1C", "AC50": "8.4 µM"}, {"molecule": "Clc1ccc(OCCn2cnc3ccccc32)c(Cl)c1", "AC50": "11.8 µM"}, {"molecule": "c1ccc(COc2ccc(OCCn3cnc4ccccc43)cc2)cc1", "AC50": "24.4 µM"}, {"molecule": "CCSc1nc2ccccc2n1CCOc1ccccc1", "AC50": "35 µM"}, {"molecule": "Cc1cccc(OCCn2cnc3ccccc32)c1", "AC50": "34.1 µM"}, {"molecule": "Fc1ccc(OCCn2c(=S)[nH]c3ccccc32)cc1", "AC50": "36.6 µM"}, {"molecule": "CSc1nc2ccccc2n1CCOc1ccccc1", "AC50": "29.5 µM"}, {"molecule": "Cc1cc2ncn(CCOc3ccccc3)c2cc1C", "AC50": "14.9 µM"}, {"molecule": "Cc1cccc(OCCn2c(=S)[nH]c3c(F)cccc32)c1", "AC50": "8.18 µM and 7.2 µM"}, {"molecule": "COCc1nc2ccccc2n1CCOc1ccc(C(C)(C)C)cc1", "AC50": "28.6 µM"}, {"molecule": "Cc1cccc(OCCn2c(=S)[nH]c3ccc(C(F)(F)F)cc32)c1", "AC50": "> 70 µM (inactive)"}, {"molecule": "Cc1ccc(C(C)C)c(OCCn2c(NC#N)nc3ccccc32)c1", "AC50": "> 70 µM (inactive)"}, {"molecule": "CC(C)Oc1cccc(OCCn2cnc3ccccc32)c1", "AC50": "13.3 µM"}, {"molecule": "Cc1cccc(OCCn2c(=S)[nH]c3cc(F)ccc32)c1", "AC50": "6.33 µM and 6 µM"}, {"molecule": "Cc1ccc(C(C)C)c(OCCn2c(=O)[nH]c3ccccc32)c1", "AC50": "> 70 µM (inactive)"}, {"molecule": "CCCCc1nc2ccccc2n1CCOc1ccccc1", "AC50": "24.3 µM"}, {"molecule": "CC(C)Oc1ccc(OCCn2c(=S)[nH]c3ccccc32)cc1", "AC50": "12.1 µM"}, {"molecule": "S=c1[nH]c2cc(Cl)ccc2n1CCOc1ccccc1", "AC50": "36 µM"}, {"molecule": "Cc1ccc(C(C)C)c(OCCn2c(N)nc3ccccc32)c1", "AC50": "21.9 µM"}, {"molecule": "Cc1ccc(OCCn2cnc3ccccc32)c(C(C)C)c1", "AC50": "32.8 µM"}, {"molecule": "Cc1ccc(C(C)C)c(OCCn2c(CO)nc3ccccc32)c1", "AC50": "> 70 µM (inactive)"}, {"molecule": "CC(C)c1ccccc1OCCn1c(=S)[nH]c2ccccc21", "AC50": "4.7 µM"}, {"molecule": "Clc1ccc(OCCn2cnc3ccccc32)cc1", "AC50": "29 µM"}, {"molecule": "Cc1cc2ncn(CCOc3ccc4c(c3)CCC4)c2cc1C", "AC50": "3.63 µM"}, {"molecule": "CC(C)Oc1ccc(OCCn2cnc3ccccc32)cc1", "AC50": "24.3 µM"}, {"molecule": "Fc1ccc2c(c1)[nH]c(=S)n2CCOc1ccccc1", "AC50": "12.4 µM and 15.5 µM"}, {"molecule": "CC(C)c1ccccc1NCCn1c(=S)[nH]c2ccccc21", "AC50": "> 70 µM (inactive)"}, {"molecule": "CC(C)(C)c1ccc(OCCn2cnc3ccccc32)cc1", "AC50": "11 µM"}, {"molecule": "CCCc1nc2ccccc2n1CCOc1ccccc1", "AC50": "35.7 µM"}, {"molecule": "Cc1ccc2c(c1)[nH]c(=S)n2CCOc1ccccc1", "AC50": "7.79 µM"}, {"molecule": "Cc1ccc(OCCn2cnc3ccccc32)c(C)c1", "AC50": "14.6 µM"}, {"molecule": "Cc1cccc(OCCn2c(=S)[nH]c3ccccc32)c1", "AC50": "8.47 µM"}, {"molecule": "Fc1cccc2c1[nH]c(=S)n2CCOc1ccccc1", "AC50": "13.9 µM"}, {"molecule": "CC(C)(C)c1ccc(OCCn2cnc3ccccc32)c(Cl)c1", "AC50": "10.1 µM"}, {"molecule": "c1ccc2c(c1)ncn2CCOc1ccc2c(c1)CCC2", "AC50": "3.3 µM"}, {"molecule": "Cc1ccc(OCCn2cnc3cc(C)c(C)cc32)cc1", "AC50": "5.54 µM"}, {"molecule": "S=c1[nH]c2cccc(Cl)c2n1CCOc1ccccc1", "AC50": "2.95 µM"}, {"molecule": "Cc1ccc(C(C)C)c(OCCn2c(=S)[nH]c3ccccc32)c1", "AC50": "3.96 µM"}, {"molecule": "CSc1nc2ccccc2n1CCOc1ccc(C)cc1", "AC50": "17.7 µM"}, {"molecule": "NCC(=O)Nc1ccc(-n2nc(C(F)(F)F)cc2-c2ccc3c(ccc4ccccc43)c2)cc1", "AC50": "10.7 µM"}, {"molecule": "FC(F)(F)c1cccc(OCCn2cnc3ccccc32)c1", "AC50": "29.7 µM"}]}, {"tested_on": "not listed separately", "experiment": "fungal lysis by compounds in C. neoformans – plate reader, dry powder, set 2, dose response (AID 743305)", "details": "Cryptococcus neoformans cell lysis, plate reader; at 35 µM (top of the series)", "values": [{"molecule": "COc1ccccc1OCCn1c(=S)[nH]c2ccccc21", "activity change, negative = lysis": "-5.77% (inactive)"}, {"molecule": "CS(=O)(=O)c1ccc(OCCn2cnc3ccccc32)cc1", "activity change, negative = lysis": "-6.3% (inactive)"}, {"molecule": "COc1ccc(OCCn2cnc3ccccc32)cc1", "activity change, negative = lysis": "-13.3% (inactive)"}, {"molecule": "O=S(=O)(c1ccc(OCCn2cnc3ccccc32)cc1)N1CCOCC1", "activity change, negative = lysis": "-16.9% (inactive)"}, {"molecule": "CCc1nc2ccccc2n1CCOc1ccccc1", "activity change, negative = lysis": "-12.5% (inactive)"}, {"molecule": "OCc1nc2ccccc2n1CCOc1ccccc1", "activity change, negative = lysis": "-11.6% (inactive)"}, {"molecule": "c1ccc(-c2ccc(OCCn3cnc4ccccc43)cc2)cc1", "activity change, negative = lysis": "-7.29% (inactive)"}]}]}
